Measurements reported in ChEMBL document CHEMBL3351580, “Pyrano-isochromanones as IL-6 inhibitors: synthesis, in vitro and in vivo antiarthritic activity” (J Med Chem, 2014).

What was measured:
THP-1 [1] = test: Inhibition of LPS-induced TNFalpha production in human THP1 cells after 24 hrs; type: functional, cell-based; conditions: THP-1, 24 h
[2] = Solubility in water; type: physicochemical
[3] = Inhibition of concanavalin A-induced cell proliferation of T cells (unknown origin) at 10 uM after 72 hrs by MTT assay; type: functional
THP-1 [4] = test: Inhibition of LPS-induced IL6 production in human THP1 cells after 24 hrs; type: functional, cell-based; conditions: THP-1, 24 h
B-cell = test: Inhibition of LPS-induced cell proliferation of B cells (unknown origin) at 10 uM after 72 hrs by MTT assay; type: functional

IC50 (THP-1 [1]) [nM] | solubility [2] [µg/mL] | IC50 (THP-1 [4]) [nM] | SMILES | inhibition at 10 µM [3] [%] | inhibition at 10 µM (B-cell) [%]
> 30000 | > 1500 | 755 | COc1c(O)c(CN2CCCC2)c2c(c1O)[C@@H]1O[C@H](CO)[C@@H](O)[C@H](O)[C@H]1OC2=O | 14.8 | 2.5
> 30000 | > 1500 | 317 | COc1c(O)c(CN2CCCCC2)c2c(c1O)[C@@H]1O[C@H](CO)[C@@H](O)[C@H](O)[C@H]1OC2=O | 13 | 34.8
25500 | > 1500 | 918 | COc1c(O)c(CN2CCC[C@H]2C(=O)O)c2c(c1O)[C@@H]1O[C@H](CO)[C@@H](O)[C@H](O)[C@H]1OC2=O | 17.3 | 28.2
> 30000 | > 1500 | 322 | COc1c(O)c(CN2C[C@@H](O)CC2C(=O)O)c2c(c1O)[C@@H]1O[C@H](CO)[C@@H](O)[C@H](O)[C@H]1OC2=O (stereo not given in full) | 6.5 | 11.4
> 30000 | > 1500 | 351 | COc1c(O)c(CN2CCC(c3ccccc3)CC2)c2c(c1O)[C@@H]1O[C@H](CO)[C@@H](O)[C@H](O)[C@H]1OC2=O | 37.2 | 28.2
> 30000 | > 1500 | 211 | COc1c(O)c(CN(C)C)c2c(c1O)[C@@H]1O[C@H](CO)[C@@H](O)[C@H](O)[C@H]1OC2=O | 21.1 | 44
13500 | > 1500 | 745 | COc1c(O)c(CN2CCC[C@H]2CO)c2c(c1O)[C@@H]1O[C@H](CO)[C@@H](O)[C@H](O)[C@H]1OC2=O | 37.5 | 31.6
